Measured values published in ChEMBL document CHEMBL2169885, “Synthesis and biological evaluation of optically active Ki16425” (Bioorg Med Chem Lett, 2012).
Activity calls are given as the source filed them. The rule behind the calls is not given here.

Experiments:
[1] = biological target: Lysophosphatidic acid receptor 2 (Homo sapiens) (UniProt Q9HBW0); assay: Antagonist activity at human LPA2 receptor expressed in HEK293 cells assessed as inhibition of LPA-induced AP-TGF-alpha release treated 5 mins before LPA addition measured after 60 mins; type: functional, cell-based
PC-3 = assay: Antagonist activity at LPA receptor in human PC3 cells assessed as inhibition of LPA-induced cell migration; type: functional, cell-based

Sequence of Lysophosphatidic acid receptor 2 (Homo sapiens) (Q9HBW0 whole entry): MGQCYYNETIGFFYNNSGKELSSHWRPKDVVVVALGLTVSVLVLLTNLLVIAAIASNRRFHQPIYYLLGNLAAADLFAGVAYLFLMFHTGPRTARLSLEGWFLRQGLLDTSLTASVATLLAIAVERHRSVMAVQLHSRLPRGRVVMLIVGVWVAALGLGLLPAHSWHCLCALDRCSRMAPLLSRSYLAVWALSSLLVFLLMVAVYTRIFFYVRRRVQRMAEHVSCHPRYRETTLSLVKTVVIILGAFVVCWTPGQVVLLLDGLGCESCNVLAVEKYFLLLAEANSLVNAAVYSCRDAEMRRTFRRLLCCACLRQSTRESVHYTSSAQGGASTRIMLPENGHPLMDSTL

| inhibition [1] | SMILES | inhibition (PC-3) |
| --- | --- | --- |
| Active | Cc1noc(-c2ccc(CSCCC(=O)O)cc2)c1NC(=O)OC(C)c1ccccc1Cl (racemic) | Active |
| Active | Cc1noc(-c2ccc(CSCCC(=O)O)cc2)c1NC(=O)O[C@H](C)c1ccccc1Cl | Active |
| Active | Cc1noc(-c2ccc(CSCCC(=O)O)cc2)c1NC(=O)O[C@@H](C)c1ccccc1Cl | Active |
